Experimental data from US10004701B2, “Methods and compositions for treating infection” (UNIVERSITY OF ROCHESTER, priority 2012, dated 2018).

Experiments:
Assay in all cases: AK assay 384-well format, Prestwick library screening
[1] = test system: E. faecium; assay type: cell-based, Enterococcus faecium; conditions: 50 μM final drug concentration; for AK-based Prestwick Library Screening Results, E. faecium (fold increase in extracellular AK activity): planktonic
[2] = test system: S. aureus strain USA300-0114; assay type: cell-based, Staphylococcus aureus; conditions: 50 μM final drug concentration; for AK-based Prestwick Library Screening Results, S. aureus (fold increase in extracellular AK activity): planktonic
[3] = test system: K. pneumoniae; assay type: cell-based, Klebsiella pneumoniae; conditions: 50 μM final drug concentration; for AK-based Prestwick Library Screening Results, K. pneumoniae (fold increase in extracellular AK activity): planktonic
[4] = test system: A. baumannii strain 98-37-09; assay type: cell-based, Acinetobacter baumannii; conditions: 50 μM final drug concentration; for AK-based Prestwick Library Screening Results, A. baumannii (fold increase in extracellular AK activity): planktonic
[5] = test system: P. aeruginosa; assay type: cell-based, Pseudomonas aeruginosa; conditions: 50 μM final drug concentration; for AK-based Prestwick Library Screening Results, P. aeruginosa (fold increase in extracellular AK activity): planktonic
[6] = test system: E. cloacae; assay type: cell-based, Enterobacter cloacae; conditions: 50 μM final drug concentration; for AK-based Prestwick Library Screening Results, E. cloacae (fold increase in extracellular AK activity): planktonic
[7] = test system: E. coli; assay type: cell-based, Escherichia coli; conditions: 50 μM final drug concentration; for AK-based Prestwick Library Screening Results, E. coli (fold increase in extracellular AK activity): planktonic
[8] = planktonic E. faecium, cutoff for positive-scoring molecules 3-fold increase
[9] = planktonic S. aureus, cutoff for positive-scoring molecules 3-fold increase
[10] = planktonic K. pneumoniae, cutoff for positive-scoring molecules 3-fold increase
[11] = planktonic A. baumannii, cutoff for positive-scoring molecules 3-fold increase
[12] = planktonic P. aeruginosa, cutoff for positive-scoring molecules 3-fold increase
[13] = planktonic E. cloacae, cutoff for positive-scoring molecules 3-fold increase
[14] = planktonic E. coli, cutoff for positive-scoring molecules 3-fold increase
[15] = cutoff for positive 3-fold increase
[16] = cutoff for positive-scoring molecules 3-fold increase
[17] = 384-well format, cutoff for positive-scoring molecules 3-fold increase

For Dihydroergotoxine mesylate, the “AK-based Prestwick Library Screening Results, E. faecium (increase in extracellular AK activity)” value [1, 8] was 0.8, the “AK-based Prestwick Library Screening Results, S. aureus (increase in extracellular AK activity)” value [2, 9] was 0.4 and the “AK-based Prestwick Library Screening Results, K. pneumoniae (increase in extracellular AK activity)” value [3, 10] was 0.5. For the same substance, the “AK-based Prestwick Library Screening Results, A. baumannii (increase in extracellular AK activity)” value [4, 11] was 0.5, the “AK-based Prestwick Library Screening Results, P. aeruginosa (increase in extracellular AK activity)” value [5, 12] was 0.4 and the “AK-based Prestwick Library Screening Results, E. cloacae (increase in extracellular AK activity)” value [6, 13] was 0.6. The “AK-based Prestwick Library Screening Results, E. coli (increase in extracellular AK activity)” value [7, 14] was 0.6.
Eburnamonine (−) was tested, and the “AK-based Prestwick Library Screening Results, E. faecium (fold increase in extracellular AK activity)” value [1, 15] was 1.1, the “AK-based Prestwick Library Screening Results, S. aureus (fold increase in extracellular AK activity)” value [2, 15] was 1.0 and the “AK-based Prestwick Library Screening Results, K. pneumoniae (fold increase in extracellular AK activity)” value [3, 15] was 1.0. For the same substance, the “AK-based Prestwick Library Screening Results, A. baumannii (fold increase in extracellular AK activity)” value [4, 15] was 1.1, the “AK-based Prestwick Library Screening Results, P. aeruginosa (fold increase in extracellular AK activity)” value [5, 15] was 1.3 and the “AK-based Prestwick Library Screening Results, E. cloacae (fold increase in extracellular AK activity)” value [6, 15] was 1.4. For the same substance, the “AK-based Prestwick Library Screening Results, E. coli (fold increase in extracellular AK activity)” value [7, 15] was 1.2.
For Foliosidine, the “AK-based Prestwick Library Screening Results, E. faecium (fold increase in extracellular AK activity)” value [1, 16] was 0.9, the “AK-based Prestwick Library Screening Results, S. aureus (fold increase in extracellular AK activity)” value [2, 16] was 0.7 and the “AK-based Prestwick Library Screening Results, K. pneumoniae (fold increase in extracellular AK activity)” value [3, 16] was 0.8. The “AK-based Prestwick Library Screening Results, A. baumannii (fold increase in extracellular AK activity)” value [4, 16] was 0.8, the “AK-based Prestwick Library Screening Results, P. aeruginosa (fold increase in extracellular AK activity)” value [5, 16] was 0.8 and the “AK-based Prestwick Library Screening Results, E. cloacae (fold increase in extracellular AK activity)” value [6, 16] was 1.0. The “AK-based Prestwick Library Screening Results, E. coli (fold increase in extracellular AK activity)” value ([7]; […]) was 0.9.
With Guanadrel sulfate the “AK-based Prestwick Library Screening Results, E. faecium (fold increase in extracellular AK activity)” value ([1]; […]) was 1.0, the “AK-based Prestwick Library Screening Results, S. aureus (fold increase in extracellular AK activity)” value ([2]; […]) was 1.2 and the “AK-based Prestwick Library Screening Results, K. pneumoniae (fold increase in extracellular AK activity)” value ([3]; […]) was 0.7. The “AK-based Prestwick Library Screening Results, A. baumannii (fold increase in extracellular AK activity)” value ([4]; […]) was 1.0, the “AK-based Prestwick Library Screening Results, P. aeruginosa (fold increase in extracellular AK activity)” value ([5]; […]) was 1.1 and the “AK-based Prestwick Library Screening Results, E. cloacae (fold increase in extracellular AK activity)” value ([6]; […]) was 1.4. For the same substance, the “AK-based Prestwick Library Screening Results, E. coli (fold increase in extracellular AK activity)” value ([7]; […]) was 1.3.
Ifenprodil tartrate was tested, and the “AK-based Prestwick Library Screening Results: E. faecium (increase in extracellular AK activity)” value ([1]; planktonic E. faecium, 384-well, cutoff for positive-scoring molecules 3-fold increase) was 1.0, the “AK-based Prestwick Library Screening Results: S. aureus (increase in extracellular AK activity)” value ([2]; planktonic S. aureus, 384-well, cutoff for positive-scoring molecules 3-fold increase) was 1.1 and the “AK-based Prestwick Library Screening Results: K. pneumoniae (increase in extracellular AK activity)” value ([3]; planktonic K. pneumoniae, 384-well, cutoff for positive-scoring molecules 3-fold increase) was 1.3. The “AK-based Prestwick Library Screening Results: A. baumannii (increase in extracellular AK activity)” value ([4]; planktonic A. baumannii, 384-well, cutoff for positive-scoring molecules 3-fold increase) was 1.4, the “AK-based Prestwick Library Screening Results: P. aeruginosa (increase in extracellular AK activity)” value ([5]; planktonic P. aeruginosa, 384-well, cutoff for positive-scoring molecules 3-fold increase) was 1.2 and the “AK-based Prestwick Library Screening Results: E. cloacae (increase in extracellular AK activity)” value ([6]; planktonic E. cloacae, 384-well, cutoff for positive-scoring molecules 3-fold increase) was 1.3. The “AK-based Prestwick Library Screening Results: E. coli (increase in extracellular AK activity)” value ([7]; planktonic E. coli, 384-well, cutoff for positive-scoring molecules 3-fold increase) was 1.2.
With Iobenguane sulfate the “AK-based Prestwick Library Screening Results, E. faecium (increase in extracellular AK activity)” value [1, 8] was 0.9, the “AK-based Prestwick Library Screening Results, S. aureus (increase in extracellular AK activity)” value [2, 9] was 0.5 and the “AK-based Prestwick Library Screening Results, K. pneumoniae (increase in extracellular AK activity)” value [3, 10] was 0.5. For the same substance, the “AK-based Prestwick Library Screening Results, A. baumannii (increase in extracellular AK activity)” value [4, 11] was 0.5, the “AK-based Prestwick Library Screening Results, P. aeruginosa (increase in extracellular AK activity)” value [5, 12] was 0.4 and the “AK-based Prestwick Library Screening Results, E. cloacae (increase in extracellular AK activity)” value [6, 13] was 0.6. For the same substance, the “AK-based Prestwick Library Screening Results, E. coli (increase in extracellular AK activity)” value [7, 14] was 0.5.
In the case of Iproniazide phosphate, the “AK-based Prestwick Library Screening Results, E. faecium (increase in extracellular AK activity)” value [1, 17] is reported as 1.0, the “AK-based Prestwick Library Screening Results, S. aureus (increase in extracellular AK activity)” value [2, 17] is reported as 1.0 and the “AK-based Prestwick Library Screening Results, K. pneumoniae (increase in extracellular AK activity)” value [3, 17] is reported as 0.7. For the same substance, the “AK-based Prestwick Library Screening Results, A. baumannii (increase in extracellular AK activity)” value [4, 17] was 0.7, the “AK-based Prestwick Library Screening Results, P. aeruginosa (increase in extracellular AK activity)” value [5, 17] was 0.7 and the “AK-based Prestwick Library Screening Results, E. cloacae (increase in extracellular AK activity)” value [6, 17] was 0.8. For the same substance, the “AK-based Prestwick Library Screening Results, E. coli (increase in extracellular AK activity)” value [7, 17] was 0.8.
With Isoetharine mesylate salt the “AK-based Prestwick Library Screening Results, E. faecium (fold increase in extracellular AK activity)” value ([1]; […]) was 0.9, the “AK-based Prestwick Library Screening Results, S. aureus (fold increase in extracellular AK activity)” value ([2]; […]) was 0.6 and the “AK-based Prestwick Library Screening Results, K. pneumoniae (fold increase in extracellular AK activity)” value ([3]; […]) was 1.4. The “AK-based Prestwick Library Screening Results, A. baumannii (fold increase in extracellular AK activity)” value ([4]; […]) was 0.8, the “AK-based Prestwick Library Screening Results, P. aeruginosa (fold increase in extracellular AK activity)” value ([5]; […]) was 0.6 and the “AK-based Prestwick Library Screening Results, E. cloacae (fold increase in extracellular AK activity)” value ([6]; […]) was 0.9. For the same substance, the “AK-based Prestwick Library Screening Results, E. coli (fold increase in extracellular AK activity)” value ([7]; […]) was 0.9.
